Experimental findings from publication PMC6631999, “A Universal Photochemical Method to Prepare Carbohydrate Sensors Based on Perfluorophenylazide Modified Polydopamine for Study of Carbohydrate-Lectin Interactions by QCM Biosensor” (Polymers, 2019) are described below.

The target of one assay is T1, peanut agglutinin (PNA) (Arachis hypogaea, UniProt P02872).
T1 construct: native commercial plant lectin (Vector Laboratories), in solution
T1 sequence (P02872 24-273): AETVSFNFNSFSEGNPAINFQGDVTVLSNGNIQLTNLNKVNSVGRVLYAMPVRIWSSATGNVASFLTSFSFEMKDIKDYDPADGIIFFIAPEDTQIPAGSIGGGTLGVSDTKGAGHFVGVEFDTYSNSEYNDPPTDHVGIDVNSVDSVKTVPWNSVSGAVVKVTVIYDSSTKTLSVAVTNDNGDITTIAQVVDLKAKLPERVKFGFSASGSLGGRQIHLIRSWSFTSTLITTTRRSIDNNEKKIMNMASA
Put plainly: QCM biosensor frequency shift (Attana Cell-A200). The assay is classed as binding. The following applies: sugar photochemically immobilised on PFPA-polydopamine sensor; lectin 100 ug/mL; 10 mM PBS pH 7.4; BSA-blocked.

A further assay addresses T2, soybean agglutinin (SBA) (Glycine max, UniProt P05046).
T2 construct: gene LE1; native commercial plant lectin (Vector Laboratories), in solution
Put plainly: QCM biosensor frequency shift (Attana Cell-A200). The assay is classed as binding.

T2 sequence (P05046 33-285): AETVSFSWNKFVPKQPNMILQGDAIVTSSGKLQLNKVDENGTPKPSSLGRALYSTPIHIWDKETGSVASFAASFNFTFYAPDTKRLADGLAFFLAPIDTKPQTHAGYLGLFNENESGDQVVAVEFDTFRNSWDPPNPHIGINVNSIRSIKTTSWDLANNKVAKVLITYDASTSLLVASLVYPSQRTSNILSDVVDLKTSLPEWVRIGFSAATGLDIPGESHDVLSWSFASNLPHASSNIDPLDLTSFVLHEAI

As to `OC[C@H]1OC(O)[C@H](O)[C@@H](O)[C@H]1O` (some centres unmarked) [galactose], the “QCM biosensor frequency shift (Attana Cell-A200)” value on peanut agglutinin (PNA) was “both SBA and PNA can bind to galactose, but the binding strengths are different”; on soybean agglutinin (SBA) it was “SBA has the highest binding with galactose, followed by PNA”.
